Measurements published in patent publication US20240131155A1, “T CELLS FOR USE IN THERAPY” (Erasmus University Medical Center Rotterdam, priority 2021, published 2024).
Where two headings read alike, the source gives them in different places. Peptide text beside a SMILES is read from it.

Tests used:
CD8+ T cells [1] = experiment: Enrichment of epitope-specific CD8 T cells from healthy donors, epitope-specific IFNg production (ELISA); type: cell-based, human; settings: positive co-cultures / co-cultures tested
Experimental: (§1) Enrichment of epitope-specific CD8 T cells was performed according to the protocol described by Butler et al., Clin Cancer Res.;13(6):1857-1867 (2007), doi:10.1158/1078-0432, but included the following amendments. CD8+ T lymphocytes were collected from PBMCs by magnetic-activated cell sorting (MACS) according to the CD8 isolation kit (Miltenyi Biotec). CD8+ T cells with >95% purity were subsequently cultured in T cell medium supplemented with IL-2 (36 IU/mL; but no gentamycin) for 1 day, after which expansion cycles started. K562ABC cells (kindly provided by prof. Bruce Levine, University of Pennsylvania, PA) were loaded with 10 μg/ml ROPN1 and/or ROPN1B peptide and incubated for 5 h at RT in serum-free medium, after which cells were washed and fixed with 0,1% paraformaldehyde. After washing, K562ABC cells were suspended at 0.1×10^6/mL and co-cultured with T cells in a 1:20 ratio. IL-2 (36 IU/mL) and IL-15 ([…]) were added at days 1 and 3 days after start of co-culture, and after 6 days, T cells were counted, suspended at 2×10^6/mL and rested for 1 day, after which the next cycle commenced (this schedule continued up to 4 or 5 cycles). Following 4 and 5 cycles, T cells were stained with pMHC multimers (HLA*0201/MLN, Immudex, Copenhagen, Denmark). pMHC-PE were pre-incubated at RT for 10 min followed by incubation with 7AAD, anti-CD3-FITC and anti-CD8-APC for 20 min. Cells were fixed with 1% paraformaldehyde and TCR expression was measured with flow cytometry and analyzed using FlowJoX software. FIG. 4A schematically depicts the procedure to enrich epitope-specific T cells, and obtainthe corresponding TCR genes.
Enriched T cells were tested for ROPN1 and/or ROPN1B epitope-specific IFNY production. To this end, T2 cells (4×10^6/mL) were loaded with peptide (20 ng/mL) for 30 min. T cells (2×10^5) were cultured in a 1:1 ratio with T2 cells in a round bottom 96-wells plate, and the next day supernatant was collected and IFN-γ production was measured with an Enzyme-linked immunosorbent assay (ELISA, Invitrogen) according to manufacturer's protocol (FIG. 4B). T2 cells without peptide were included as a negative control; and staphylococcal enterotoxin B (0.1 μg, Sigma) was used as a positive control.
Enrichment of epitope-specific T cells was performed by co-culturing naïve T cells with CD11c-positive cells that were loaded with peptide. PBMCs were passed through a cell strainer (70 μm) and used for the isolation of naïve T cells and CD11c cells. To isolate CD11c-positive cells (typically dendritic cells, DC), PBMCs were stained for 10 mM at 4° C. with Fc block (10 μL/10^7 PBMCs, BD Pharmingen, Vianen, the Netherlands), after which cells were stained with CD11c-PE antibody (10 μL/10^7 PBMCs, BD Pharmingen) for 30 mM at 4° C., washed, and incubated with PE beads (10 μL/10^7 PBMCs, Miltenyi Biotech, Bergisch Gladbach, Germany) for another […] at 4° C. After washing, cells were dissolved in magnetic-activated cell sorting (MACS) buffer and passed through a MACS LS column (Miltenyi Biotec) to positively select CD11c cells. After selection, CD11c cells were irradiated with 30 Gy, and cultured overnight in a 24-wells plate (1×10^6/mL) in RPMI medium supplemented with 1% human serum (Sanquin), 1% antibiotics, […] L-glutamine, a DC maturation cocktail (a mixture of GM-CSF (10 ng/mL, ImmunoTools, Germany), IL-4 (10 ng/mL, ImmunoTools), LPS (100 ng/mL, Invitrogen, Goteborg, Sweden) and IFNY (10 ng/mL, Preprotech, London, United Kingdom)), as well as peptide (10 pg/mL). Naïve T cells were isolated with use of the Naïve T Cell isolation kit (Miltenyi Biotec) according to the manufacturer's protocol, and suspended in RPMI medium supplemented with 5% human serum (Sanquin), 1% antibiotics, […] L-glutamine and IL-7 (5 ng/mL, BD Pharmingen). The run-through of the naïve T cell selection was frozen down and used for re-stimulation of epitope-specific T cells. […]

HLA-A2 = molecular target: T1, HLA-A2 (Homo sapiens, UniProt P04439, D140Y/D185E/D98H/E176V/E277Q/G131W/G231S/I119V/I121R/I166T/I218V/L300P/L318F/N151K/N90K/P208A/P217A/Q86G/Q94H/R138H/R169H/T345S); experiment: HLA-A2 stabilization assay using T2 cells; type: binding; settings: for binding to HLA-A2: in words, peptides derived from immunopeptidome
T1 construct: The HLA-A2 stabilization assay was performed using T2 cells; endogenous in cells; host or cells: T2 cells (LCLxT lymphoblastoid hybrid cell line 0.1743CEM.T2)

CD8+ T cells [2] = experiment: peptide:MHC multimer/tetramer staining of enriched T cells (flow cytometry); type: cell-based, human; settings: Table 4; enriched T cells after enrichment cycles
Experimental: as §1
Following enrichment, T cells were tested for ROPN1 and/or ROPN1B epitope-specific IFNY production. To this end, T2 cells (1×10^6/mL) were loaded with peptide (20 ng/mL) for 30 min, after which T cells (1×10^5) were cultured in a 1:1 ratio with T2 cells in a round bottom 96-wells plate for 18 h. Supernatant was collected and IFN-γ production was measured with an Enzyme-linked immunosorbent assay (ELISA, BioLegend) according to the manufacturer's protocol (FIG. 9A). T2 cells loaded with an irrelevant peptide were included as a negative control. T cell IFNg production was considered epitope-specific in case levels exceeded 200 pg/ml, and levels were minimally twice as high as for irrelevant peptide (see for full listing of criteria, FIG. 8). T cells that fulfilled these criteria were stained with peptide:MHC (pMHC) tetramers to determine the frequency of epitope-specific T cells. Empty Loadable HLA Tetramers (5 μL, Tetramer shop, Kongens Lyngby, Denmark) were incubated with 0.5 μL peptide (200 μM) for 30 min on ice. Complexes of pMHC were centrifuged (3300 g, 5 min) and incubated with 0.1×10^6 T cells for 15 min at 37° C. in the dark. Next, an antibody cocktail containing CD3-FITC (1:30, BD) and CD8-APC (1:300, eBiosciences) was added and incubated for an additional 30 min at 4° C. in the dark. Finally, T cells were washed twice and fixed with 1% paraformaldehyde (PFA), after which events were acquired with FACSCelesta (BD) and analyzed using FlowJoX software.

[3] = molecular target: T2, HLA-A2 (HLA-A2:01) on T2 cells (human); experiment: HLA-A2 stabilization assay on T2 cells, peptide titration (Example 2, repeated); column Affinity for HLA.A2.01 (M)
T2 construct: detected with anti-HLA-A2 mAb BB7.2

[4] = molecular target: T2, HLA-A2 (HLA-A2:01) on T2 cells; experiment: HLA-A2 stabilization assay on T2 cells (anti-HLA-A2-PE, flow cytometry), single peptide concentration 25 ug/mL [panel E]
[5] = molecular target: T2, HLA-A2 (HLA-A2:01) on T2 cells; experiment: HLA-A2 stabilization assay on T2 cells (anti-HLA-A2-PE, flow cytometry), single peptide concentration [panel D]
[6] = molecular target: T2, HLA-A2 (HLA-A2:01) on T2 cells; experiment: HLA-A2 stabilization assay on T2 cells, peptide titration; amplitude relative to that of reference peptide YLE [panel D]
[7] = molecular target: T2, HLA-A2 (HLA-A2:01) on T2 cells; experiment: HLA-A2 stabilization assay on T2 cells, peptide titration; amplitude = highest data point corrected for baseline [panel E]
[8] = molecular target: T2, HLA-A2 (HLA-A2:01) on T2 cells; experiment: HLA-A2 stabilization assay on T2 cells, peptide titration, flow cytometry with anti-HLA-A2 BB7.2; column Affinity for HLA A2:01 (M)
[9] = Table 2 (Example 1), EC50 of peptide titration on T2 cells, read-out: Affinity for HLA A2:01
[10] = Table 4 (Examples 1 and 2), EC50 of peptide titration on T2 cells, read-out: Affinity for HLA.A2.01
[11] = Table 2 (Example 1), healthy donor T cells
[12] = Example 1, top-ranked epitopes, no legible unit, read-out: EC50 (HLA-A2 binding)

| EC50 (HLA-A2; [9]) | EC50 (HLA-A2; [10]) | Minimum stability [4] | Minimum stability [5] | Molecule | T cell responses observed (IFNg) against epitope (CD8+ T cells [1]; Table 4) | pMHC staining % pMHC+ CD8+ in CD3+ (CD8+ T cells [2]) | further results |
| --- | --- | --- | --- | --- | --- | --- | --- |
| 5.05 µM | 4.5 µM | – | – | CC(C)C[C@H](NC(=O)[C@H](C)NC(=O)[C@H](CO)NC(=O)[C@H](CS)NC(=O)[C@H](C)NC(=O)[C@H](CC(C)C)NC(=O)[C@H](C)NC(=O)[C@H](CC(C)C)NC(=O)[C@@H](N)Cc1ccccc1)C(=O)O [FLALACSAL] (H-FLALACSAL-OH; N-terminus and C-terminus assumed) | 2/5 co-cultures | 0.077% | T cell responses observed (IFNg) against epitope (CD8+ T cells [1]; [11]): 2/5 co-cultures; EC50 (HLA-A2; Example 1, top-ranked epitopes, read-out: EC50 (HLA-A2 binding)): 5.1 µM |
| – | – | 1.62 fold change over baseline | 1.41 fold change over baseline | FLALACSAL (Synthetic peptide) [Epitope 2 peptide FLALACSAL of ROPN1 and ROPN1B] | – | – | EC50 [3]: 4.5 µM; Amplitude [6]: 0.95 relative to YLE; Amplitude [7]: 3800 geometric mean normalized to baseline; EC50 [8]: 5.05 µM |
| – | – | 1.27 fold change over baseline | 1.38 fold change over baseline | LIIRAEELAQM (11-mer found by immunopeptidomics; tested as synthetic peptide) [Epitope 5 peptide LIIRAEELAQM of ROPN1 and ROPN1B] | – | – | EC50 [3]: 6.99 µM; Amplitude [6]: 0.918 relative to YLE; Amplitude [7]: 3170 geometric mean normalized to baseline; EC50 [8]: 6.99 µM |
| – | – | 1.09 fold change over baseline | 1.09 fold change over baseline | HVSRMLNYI (ROPN1B, predicted) | – | – | – |
| – | – | 1.06 fold change over baseline | 1.06 fold change over baseline | GLPRIPFST (ROPN1B, predicted) | – | – | – |

The remaining lines, values behind:

| Molecule | EC50 (HLA-A2; [9]) | EC50 (HLA-A2; [10]) | Minimum stability [4] | Minimum stability [5] | T cell responses observed (IFNg) against epitope (CD8+ T cells [1]; Table 4) | pMHC staining % pMHC+ CD8+ in CD3+ (CD8+ T cells [2]) | further results |
| --- | --- | --- | --- | --- | --- | --- | --- |
| CC(C)C[C@H](NC(=O)[C@H](C)N)C(=O)N[C@@H](C)C(=O)N[C@@H](CS)C(=O)N[C@@H](CO)C(=O)N[C@@H](C)C(=O)N[C@@H](CC(C)C)C(=O)NCC(=O)N[C@H](C(=O)O)C(C)C (H-ALACSALGV-OH; N-terminus and C-terminus assumed) | 3.16 µM | 2.84 µM | – | – | 0/4 co-cultures | – | – |
| CC[C@H](C)[C@H](NC(=O)[C@H](Cc1ccc(O)cc1)NC(=O)[C@@H](NC(=O)[C@H](Cc1ccc(O)cc1)NC(=O)[C@H](CC(C)C)NC(=O)[C@H](Cc1ccccc1)NC(=O)[C@H](CCC(N)=O)NC(=O)[C@@H](N)Cc1ccccc1)[C@@H](C)O)C(=O)N[C@@H](C)C(=O)O (H-FQFLYTYIA-OH; N-terminus and C-terminus assumed) | 3.28 µM | 3.43 µM | – | – | 1/4 co-cultures | 0.43% | T cell responses observed (IFNg) against epitope (CD8+ T cells [1]; [11]): 1/4 co-cultures; EC50 (HLA-A2; [12]): 3.3 µM |
| CSCC[C@H](NC(=O)[C@@H](N)CCCCN)C(=O)N[C@@H](CC(C)C)C(=O)N[C@@H](CCCCN)C(=O)N[C@@H](CCC(=O)O)C(=O)N[C@@H](Cc1ccccc1)C(=O)N[C@@H](C)C(=O)N[C@@H](CCCCN)C(=O)N[C@@H](C)C(=O)O (H-KMLKEFAKA-OH; N-terminus and C-terminus assumed) | 91.2 µM | 38.2 µM | – | – | 0/2 co-cultures | – | – |
| CC[C@H](C)[C@H](NC(=O)[C@H](CCCCN)NC(=O)[C@H](CC(C)C)NC(=O)[C@@H](NC(=O)[C@@H](N)CCCCN)[C@@H](C)O)C(=O)N[C@H](C(=O)N[C@@H](CS)C(=O)N[C@@H](CCC(=O)O)C(=O)N[C@H](C(=O)O)C(C)C)C(C)C (H-KTLKIVCEV-OH; N-terminus and C-terminus assumed) | 4.35 µM | 4.4 µM | – | – | 2/4 co-cultures | 0.28% | T cell responses observed (IFNg) against epitope (CD8+ T cells [1]; [11]): 2/4 co-cultures; EC50 (HLA-A2; [12]): 4.4 µM |
| CC[C@H](C)[C@H](NC(=O)[C@@H](NC(=O)[C@@H](N)CC(C)C)[C@@H](C)CC)C(=O)N[C@@H](CCCNC(=N)N)C(=O)N[C@@H](C)C(=O)N[C@@H](CCC(=O)O)C(=O)N[C@@H](CCC(=O)O)C(=O)N[C@@H](CC(C)C)C(=O)N[C@@H](C)C(=O)N[C@@H](CCC(N)=O)C(=O)N[C@@H](CCSC)C(=O)O (H-LIIRAEELAQM-OH; N-terminus and C-terminus assumed) | 6.99 µM | 6.99 µM | – | – | 1/7 co-cultures | 0.60% | binding to HLA-A2 (HLA-A2): did bind to HLA-A2 with high affinity |
| AELTPELLKI (Epitope 16) [eluted 10-mer, mapped in silico to HLA-B40:01] | – | – | – | – | – | – | binding to HLA-A2 (HLA-A2): did not bind to HLA-A2 |
| MLNYIEQEV (Synthetic peptide (ThinkPeptides/ProImmune)) [Epitope 1 (MLN) peptide MLNYIEQEV of ROPN1B] | – | – | 1.13 fold change over baseline | 1.4 fold change over baseline | – | – | EC50 [3]: 4.82 µM; Amplitude [6]: 0.935 relative to YLE; Amplitude [7]: 3450 geometric mean normalized to baseline; EC50 [8]: 6.56 µM |
